Data from patent US11464768B2, “Pimavanserin alone or in combination for use in the treatment of Alzheimer's disease psychosis” (ACADIA Pharmaceuticals Inc., priority 2016, dated 2022).

What was measured:
[1] = tested on: DOI ((±)-2,5-dimethoxy-4-iodoamphetamine, a serotonin agonist) induced head twitches; conditions: rat; effective in these models at oral doses of 3 and 10 mg/kg; cited from earlier work
ADP patients [2] = test: Same twelve-week study: cognitive status by Mini-Mental State Examination (MMSE); assay type: in vivo, human; conditions: 34 mg once daily; 12 week study
Method: In some embodiments the effect of the treatment is an antipsychotic effect, for example determined by an improved patient score in the Neuropsychiatric Inventory-Nursing Home Version (NPI-NH) psychosis scale, without impairing cognition, as determined by Mini-Mental State Examiner (MMSE) score. In some embodiment the antipsychotic effect without impairing cognition is determined over the 12 weeks of treatment. The MMSE is a brief 30-point questionnaire that is used to quantitatively assess cognition (Folstein et al., Journal of Psychiatric Research. 12 (3): 189-98, 1975). The MMSE test includes simple questions and problems in a number of areas: the time and place of the test, repeating lists of words, arithmetic, language use and comprehension, and copying a drawing. […]
Each patient participated in a 3-week screening period, a 12-week double-blind treatment period, and a 4-week follow-up period. […] The safety of subjects was assessed by monitoring adverse events, physical examinations, vital signs, clinical laboratory tests (hematology, clinical chemistry, and urinalysis), and electrocardiograms. Furthermore cognitive status was assessed via MMSE.

ADP patients [3] = test: Same twelve-week study: safety assessment (adverse events); assay type: in vivo, human; conditions: for tolerability and safety profile: 34 mg once daily for twelve weeks, 181 patients in safety assessment
Method: Each patient participated in a 3-week screening period, a 12-week double-blind treatment period, and a 4-week follow-up period. The maximum duration of the study for each patient was approximately 19 weeks. Pimavanserin was administered in tablet form, once daily by mouth in 34 mg doses (2 tablets of 17 mg pimavanserin), equivalent to 40 mg pimavanserin tartrate. (2 tablets of 20 mg pimavanserin tartrate) Placebo was administered with visibly matching tablets, using the same route and regimen. The safety of subjects was assessed by monitoring adverse events, physical examinations, vital signs, clinical laboratory tests (hematology, clinical chemistry, and urinalysis), and electrocardiograms. Furthermore cognitive status was assessed via MMSE.
The results of the study were obtained from a majority of the 181 patients, some of the patients were excluded from the endpoint results but all 181 patients were included in the safety assessment.

ADP patients [4] = test: Same twelve-week study: NPI-NH Agitation/Aggression subscale (Domain C); assay type: in vivo, human; conditions: pimavanserin arm; placebo arm 0.47
Text: To determine the score for a given domain, the caregivers rate frequency and severity of the resident's behavior for that particular domain. The frequency is rated on a 0-4 point scale. For example, the frequency is rated as a) 0 for not present; b) 1 for occasional; c) 2 for often; d) 3 for frequent; and e) 4 for very frequent occurrence of the behavior in question. The severity is rated on a 1-3 point scale. For example, the severity is rated as a) 1 for mild; b) 2 for moderate; and 3 for severe. The score of each domain is determined by multiplying the frequency rating score by the severity rating score. The score of each domain ranges from 0 to 12.
A twelve-week, randomized, double-blind, placebo-controlled, single-center study was conducted in ADP patients in nursing homes. […]
Nursing home staff administered the study drug to the patient each morning as a single oral dose (2×17 mg tablets) beginning within 24 hours of completion of all baseline assessments (Day 1). […] Behavioral symptoms were assessed using the NPI-NH Total and Individual Behavioral Domain scores and the Cohen-Mansfield Agitation Inventory—Short Form (CMAI-SF). […] In addition, evaluation of activities of daily living (ADL) was evaluated using the Alzheimer's Disease Cooperative Study-ADL instrument (ADCS-ADL). […]

Q: What does the source list for `CC(C)COc1ccc(CNC(=O)N(Cc2ccc(F)cc2)C2CCN(C)CC2)cc1` [Pimavanserin, N-(1-methylpiperidin-4-yl)-N-(4-fluorophenylmethyl)-N′-(4-(2-methylpropyloxy)phenylmethyl)carbamide]?
A: activity in DOI induced head twitches [1]: active; cognition as measured by the Mini-Mental State Examination (MMSE) score (ADP patients [2]): did not impair cognition; tolerability and safety profile (ADP patients [3]): safe and well tolerated; tolerability and safety profile (ADP patients [3]; listed as pimavanserin): well tolerated; effect on cognitive function or motor functions (ADP patients [3]; pimavanserin arm (same in placebo arm)): no negative effect on cognitive function or motor functions; adverse event: falls (ADP patients [3]; pimavanserin arm, placebo arm 23.1%): 23.3%; adverse event: urinary tract infection (ADP patients [3]; pimavanserin arm, placebo arm 27.5%): 22.2%; improvement on the Agitation/Aggression subscale (Domain C) of the NPI-NH (ADP patients [4]): 1.13 points
